Assays:
MDA-MB-468 = assay: Antiproliferative activity against human MDA-MB-468 cells assessed as growth inhibition after 5 days by SRB assay; assay type: functional; details: MDA-MB-468, 120 h
[1] = molecular target: T1, Receptor-type tyrosine-protein kinase FLT3 (Homo sapiens, UniProt P36888); assay: Inhibition of FLT3 (unknown origin) by FRET-based homogeneous assay
T1 sequence (P36888 whole entry): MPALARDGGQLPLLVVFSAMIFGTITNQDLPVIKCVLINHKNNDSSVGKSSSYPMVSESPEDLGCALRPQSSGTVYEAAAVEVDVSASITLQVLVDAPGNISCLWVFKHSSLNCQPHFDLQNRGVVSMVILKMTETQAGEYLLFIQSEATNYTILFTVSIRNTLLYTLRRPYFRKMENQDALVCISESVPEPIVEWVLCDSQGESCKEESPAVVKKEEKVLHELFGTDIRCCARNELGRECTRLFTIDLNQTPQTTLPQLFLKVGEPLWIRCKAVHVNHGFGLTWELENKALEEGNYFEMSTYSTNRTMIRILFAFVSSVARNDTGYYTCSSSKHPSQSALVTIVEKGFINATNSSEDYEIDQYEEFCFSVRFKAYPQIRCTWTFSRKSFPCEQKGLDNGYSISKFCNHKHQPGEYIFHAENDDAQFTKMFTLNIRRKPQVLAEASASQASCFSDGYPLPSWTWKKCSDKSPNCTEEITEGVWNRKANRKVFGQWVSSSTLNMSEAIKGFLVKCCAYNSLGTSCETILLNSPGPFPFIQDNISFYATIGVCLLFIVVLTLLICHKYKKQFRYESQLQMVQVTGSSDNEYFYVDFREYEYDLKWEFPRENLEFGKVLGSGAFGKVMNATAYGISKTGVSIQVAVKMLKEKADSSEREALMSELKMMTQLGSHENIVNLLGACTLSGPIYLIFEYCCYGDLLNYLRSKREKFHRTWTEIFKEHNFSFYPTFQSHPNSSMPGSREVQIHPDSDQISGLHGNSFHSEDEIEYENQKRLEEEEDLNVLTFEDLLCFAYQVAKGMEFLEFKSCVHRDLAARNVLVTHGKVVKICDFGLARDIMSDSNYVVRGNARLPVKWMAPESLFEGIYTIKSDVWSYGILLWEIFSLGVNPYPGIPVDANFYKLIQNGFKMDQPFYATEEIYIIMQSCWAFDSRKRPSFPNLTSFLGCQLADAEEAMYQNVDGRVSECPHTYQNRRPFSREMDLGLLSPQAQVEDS

HCC1954 = assay: Antiproliferative activity against human HCC1954 cells assessed as growth inhibition after 5 days by SRB assay; assay type: functional; details: HCC1954, 120 h
Aurora kinase A = molecular target: T2, Aurora kinase A (Homo sapiens, UniProt O14965); assay: Inhibition of aurora A (unknown origin) by FRET-based homogeneous assay
T2 sequence (O14965 whole entry): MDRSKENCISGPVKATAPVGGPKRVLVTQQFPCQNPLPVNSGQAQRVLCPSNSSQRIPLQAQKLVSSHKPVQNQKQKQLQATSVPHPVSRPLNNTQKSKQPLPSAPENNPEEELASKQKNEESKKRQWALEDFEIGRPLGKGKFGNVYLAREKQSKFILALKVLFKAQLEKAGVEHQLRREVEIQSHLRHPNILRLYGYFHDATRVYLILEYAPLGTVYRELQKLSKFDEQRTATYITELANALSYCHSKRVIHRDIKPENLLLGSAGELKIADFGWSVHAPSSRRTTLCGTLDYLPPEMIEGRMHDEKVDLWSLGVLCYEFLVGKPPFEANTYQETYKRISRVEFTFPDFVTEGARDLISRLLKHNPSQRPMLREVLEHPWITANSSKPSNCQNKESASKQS

[2] = Plasma protein binding in mouse at […] after 4 hrs by equilibrium dialysis method; assay type: ADME, cell-free; details: read-out: PPB
Mus musculus = assay: Toxicity in human MDA-MB-468 cells xenografted CB-17 SCID mouse assessed as reduction in body weight at 25 mg/kg, ip qd for 21 days; assay type: organism-based; design: dose 25 mg/kg, route intraperitoneal; details: in vivo, 504 h
[3] = molecular target: Vascular endothelial growth factor receptor 2 (Homo sapiens, UniProt P35968); assay: Inhibition of KDR (unknown origin) by FRET-based homogeneous assay
Vascular endothelial growth factor receptor 2, sequence (P35968 whole entry): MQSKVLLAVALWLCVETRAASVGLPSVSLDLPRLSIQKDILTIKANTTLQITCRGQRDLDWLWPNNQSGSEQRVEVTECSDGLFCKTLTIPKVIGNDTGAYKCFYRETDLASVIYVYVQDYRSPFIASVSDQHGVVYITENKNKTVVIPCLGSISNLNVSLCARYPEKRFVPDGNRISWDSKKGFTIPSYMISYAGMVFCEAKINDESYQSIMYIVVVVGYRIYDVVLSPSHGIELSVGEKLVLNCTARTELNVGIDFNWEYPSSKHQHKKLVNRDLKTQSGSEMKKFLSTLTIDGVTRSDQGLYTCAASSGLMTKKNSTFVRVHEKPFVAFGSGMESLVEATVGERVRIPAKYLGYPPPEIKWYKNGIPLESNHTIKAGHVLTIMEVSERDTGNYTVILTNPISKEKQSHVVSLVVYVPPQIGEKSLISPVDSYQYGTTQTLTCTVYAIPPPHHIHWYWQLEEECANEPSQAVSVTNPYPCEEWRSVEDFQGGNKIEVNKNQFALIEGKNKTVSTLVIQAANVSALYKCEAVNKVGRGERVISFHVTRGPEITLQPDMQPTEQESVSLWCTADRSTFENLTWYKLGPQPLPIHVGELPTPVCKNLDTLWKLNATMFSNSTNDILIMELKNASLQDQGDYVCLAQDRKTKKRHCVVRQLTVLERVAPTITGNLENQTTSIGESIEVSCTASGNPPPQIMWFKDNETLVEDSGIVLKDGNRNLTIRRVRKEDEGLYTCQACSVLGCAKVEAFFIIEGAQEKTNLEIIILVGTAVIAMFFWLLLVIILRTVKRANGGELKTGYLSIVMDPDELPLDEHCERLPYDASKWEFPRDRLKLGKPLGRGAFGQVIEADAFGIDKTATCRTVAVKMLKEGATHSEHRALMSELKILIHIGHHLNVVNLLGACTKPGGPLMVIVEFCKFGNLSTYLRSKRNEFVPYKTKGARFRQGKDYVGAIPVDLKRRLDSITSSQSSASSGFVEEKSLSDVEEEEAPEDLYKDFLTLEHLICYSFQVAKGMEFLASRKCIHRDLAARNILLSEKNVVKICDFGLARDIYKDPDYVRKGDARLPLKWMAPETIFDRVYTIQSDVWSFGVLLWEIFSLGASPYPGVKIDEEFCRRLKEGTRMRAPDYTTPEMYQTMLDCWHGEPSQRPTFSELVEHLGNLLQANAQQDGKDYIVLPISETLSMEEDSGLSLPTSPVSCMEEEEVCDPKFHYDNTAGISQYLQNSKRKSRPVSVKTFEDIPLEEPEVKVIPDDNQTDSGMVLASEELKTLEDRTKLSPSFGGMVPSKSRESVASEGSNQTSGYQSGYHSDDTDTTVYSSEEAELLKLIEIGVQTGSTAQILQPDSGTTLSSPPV

Compound: COc1ccc2c(c1)/C(=C\c1ccc3c(/C=C/c4ccc(N5CCN(C)CC5)nc4)n[nH]c3c1)C(=O)N2
- GI50 (MDA-MB-468): < 10 nM
- IC50 [1]: 180 nM
- GI50 (HCC1954): 2300 nM
- IC50 (Aurora kinase A): 370 nM
- fraction unbound at 4 h [2]: 0.01
- Activity (Mus musculus): Non-toxic
- IC50 [3]: 480 nM
